# Test system: aconitine-induced ventricular arrhythmias
# Test: aconitine test in rats (antiarrhythmic activity)
# Assay type: in vivo, male rats
# Details: Rattus norvegicus, iv, read-out: ED50 (dose which increases by 50% the perfusion time of aconitine relative to control animals)
# Procedure: The principle of the technique rests on the time required for inducing ventricular arrhythmias with aconitine slowly perfused in rats. An antiarrhythmic substance delays the appearance of the arrhythmia, and this delay is proportional to the activity of the substance.
# Groups of 5 male rats are used. Individual anaesthetisation is carried out (10% urethane: 1 g/kg/ip) to permit catheterisation of the vein of the penis. The electrocardiogram is recorded. At time T=O, the substance studied is injected as an aqueous solution, in the proportion of 2.5 ml of solution per kg, in the course of 30 seconds. At time T=60 seconds, or 30 seconds after completing the injection, aconitine is perfused at the rate of 20 μg per minute until […] extrasystoles appear. The perfusion time of the aconitine is noted. The results are expressed as an ED50, i.e. the dose of the product under test in mg/kg which increases by 50% the perfusion time of aconitine relative to control animals.
row,Structure (SMILES),ED50 [mg/kg]
1,"NC(CCC1CCNCC1)c1ccc2ccccc2c1 (stereo not drawn) [Example 9, 1-(2-Naphthyl)-3-(4-piperidyl)-1-propanamine]",< 0.3

# Same assay, conditions: {}
row,Structure (SMILES),ED50 (dose which increases by 50% the perfusion time of aconitine relative to control animals) [mg/kg i.v.]
1,"COc1cc2ccnc(C(=O)CCC3CCNCC3)c2cc1OC [Example 3, 1-(6,7-Dimethoxy-1-isoquinolyl)-3-(4-piperidyl)-1-propanone]",2.1
2,"C=C[C@H]1C[N@@]2CC[C@H]1C[C@@H]2[C@@H](O)c1ccnc2ccc(OC)cc12 [Quinidine, reference compound]",7.5
3,"CC(C)(C)c1nc(C(O)CCC2CCNCC2)c2ccccc2n1 (stereo not drawn) [Example 8, 1[2-(1,1-Dimethylethyl)-4-quinazolinyl]-3-(4-piperidyl)-1-propanol]",1
4,"OC(CCC1CCNCC1)c1cccc2ccccc12 (stereo not drawn) [Example 5, 1-(1-Naphthyl)-3-(4-piperidyl)-1-propanol]",1.42
5,"O=C(CCC1CCNCC1)c1cccc2ccccc12 [Example 2, 1-(1-Naphthyl)-3-(4-piperidyl)-1-propanone]",3.8
6,"O=C(CCC1CCNCC1)c1ccc2ccccc2c1 [Example 1, 1-(2-Naphthyl)-3-(4-piperidyl)-1-propanone]",4
7,"OC(CCC1CCNCC1)c1nccc2ccccc12 (stereo not drawn) [Example 6, 1-(1-Isoquinolyl)-3-(4-piperidyl)-1-propanol]",2.7
8,"COc1cc2ccnc(C(O)CCC3CCNCC3)c2cc1OC (stereo not drawn) [Example 7, 1-(6,7-Dimethoxy-1-isoquinolyl)-3-(4-piperidyl)-1-propanol]",2.5

# Reference: US4665076A, “Pharmacologically active piperidine derivatives and their use” (Rhone-Poulenc Sante, priority 1984, dated 1987)
